Data as given in patent publication US20200087258A1, “INHIBITOR OF CITRATE TRANSPORTER AND THEIR USE IN THERAPY” (Eternygen GmbH, priority 2017, published 2020).

Experiments:
GLUT1 = molecular target: T1, GLUT1 (Homo sapiens, UniProt P11166); test: 3H-glucose uptake counter assay in Huh7 cells endogenously expressing GLUT1; assay type: cell-based; conditions: endogenous GLUT1
T1 construct: Huh-7 cells which endogenously express GLUT1; endogenous in cells; host or cells: Huh-7
T1 sequence (P11166 1-492): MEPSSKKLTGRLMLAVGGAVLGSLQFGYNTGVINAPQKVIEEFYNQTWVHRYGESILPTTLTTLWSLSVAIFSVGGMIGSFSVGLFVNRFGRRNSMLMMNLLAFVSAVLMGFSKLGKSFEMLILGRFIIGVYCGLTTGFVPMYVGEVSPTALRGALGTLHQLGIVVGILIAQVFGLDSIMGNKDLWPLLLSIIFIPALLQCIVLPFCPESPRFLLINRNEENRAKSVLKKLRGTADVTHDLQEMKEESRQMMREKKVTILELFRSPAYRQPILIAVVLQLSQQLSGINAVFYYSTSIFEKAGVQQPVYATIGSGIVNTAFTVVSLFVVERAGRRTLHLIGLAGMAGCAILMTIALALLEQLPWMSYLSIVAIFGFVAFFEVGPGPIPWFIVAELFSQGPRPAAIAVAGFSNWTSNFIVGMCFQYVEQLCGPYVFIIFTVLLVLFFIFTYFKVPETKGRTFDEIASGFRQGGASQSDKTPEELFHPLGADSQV
Method: (§1) The compound was obtained by screening of a library containing more than 50,000 lead-like compounds and fragments. The library was tested using a functional citrate uptake assay with HEK293 cells overexpressing recombinant human INDY. The following hit confirmation was conducted in the same assay system. To confirm the activity of selected compounds on the target INDY another cell assay was conducted. In this assay system citrate uptake was measured using HepG2 cells which endogenously express INDY. Furthermore selectivity of selected compounds was tested for two other transporters in different assay systems. The first transporter was the glutamate transporter GLT-1 tested in a glutamate uptake assays using HEK293 cells overexpressing recombinant human GLT-1. The second transporter was the glucose transporter GLUT1 tested in a glucose uptake assay using Huh-7 cells which endogenously express GLUT1. Compounds were considered to be selective with an at least 5-fold higher activity for INDY than for the other two transporters.
Cells were maintained in cell medium using cell culture grade flasks (CellSTACK Corning, 500 cm2 dishes or T175 depending on cell number). The selection antibiotic and G418 (800 μg/ml) was added during cultivation but not for seeding into assay plates. For splitting, cells were washed with PBS (w/o Ca2+, Mg2+, phenol red) and detached with Trypsin/EDTA. Throughout cultivation cells were kept sub-confluent. Detached cells (50,000 cells/well) were seeded in 96-well plates (white, clear bottom from Corning #655098) and incubated over night before usage in the assay. The following media were used. For HEK293 cells expressing INDY MEM (PAA)+10% FCS+1×P/S+2 mM L-Gln; for HEK293 cells expressing GLT-1 DMEM (Gibco)+10% FCS+400 µg/ml G418; for Huh7 cells DMEM (Gibco)+10% FCS+2 mM L-Gin (+1×P/S); for HepG2 cells MEM (PAA, Cat # E15-024)+10% FCS+2 mM L-Gin+1×NEAA+1 mM Na-Pyruvat […]
Glucose uptake in Huh7 cells was measured as a counter assay. […] After 20 min incubation at RT plates were measured using TopCount system, Perkin Elmer. […]

INDY [1] = molecular target: T2, INDY (Homo sapiens, UniProt Q86YT5); test: 14C-citrate uptake in HepG2 cells endogenously expressing INDY (NaCT); assay type: cell-based; conditions: endogenous INDY
T2 sequence (Q86YT5 whole entry): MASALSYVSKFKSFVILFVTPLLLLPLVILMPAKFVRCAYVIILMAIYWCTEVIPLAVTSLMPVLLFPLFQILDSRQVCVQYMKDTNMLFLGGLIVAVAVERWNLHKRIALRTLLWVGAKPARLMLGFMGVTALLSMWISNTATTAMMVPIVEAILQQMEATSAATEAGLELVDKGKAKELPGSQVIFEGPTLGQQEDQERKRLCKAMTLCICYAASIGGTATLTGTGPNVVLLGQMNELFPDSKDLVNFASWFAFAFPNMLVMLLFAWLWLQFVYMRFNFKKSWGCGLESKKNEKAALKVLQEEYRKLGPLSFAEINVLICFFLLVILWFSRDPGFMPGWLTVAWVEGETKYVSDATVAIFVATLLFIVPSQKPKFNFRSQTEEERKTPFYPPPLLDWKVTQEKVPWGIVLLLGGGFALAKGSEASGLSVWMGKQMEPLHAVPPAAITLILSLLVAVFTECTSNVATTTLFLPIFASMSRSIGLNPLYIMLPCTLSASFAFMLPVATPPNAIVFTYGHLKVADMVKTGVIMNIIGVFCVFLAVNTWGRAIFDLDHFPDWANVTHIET
Method in brief: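 HepG2 cells, which express INDY endogenously, were preincubated with compound for 5 min at 37 °C in pH 6.5 Na+ citrate uptake buffer. 14C-citrate ([…]) was then added for 90 min at 37 °C. After washing and NaOH lysis, uptake was measured by scintillation counting, with 5 mM citrate as positive control.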

GLT-1 = molecular target: T3, GLT-1 (Homo sapiens, UniProt P43004); test: 3H-glutamate uptake counter assay in HEK293 cells overexpressing human GLT-1; assay type: cell-based
T3 construct: host or cells: HEK293 (virus made in GP293 packaging cells)
T3 sequence (P43004 whole entry): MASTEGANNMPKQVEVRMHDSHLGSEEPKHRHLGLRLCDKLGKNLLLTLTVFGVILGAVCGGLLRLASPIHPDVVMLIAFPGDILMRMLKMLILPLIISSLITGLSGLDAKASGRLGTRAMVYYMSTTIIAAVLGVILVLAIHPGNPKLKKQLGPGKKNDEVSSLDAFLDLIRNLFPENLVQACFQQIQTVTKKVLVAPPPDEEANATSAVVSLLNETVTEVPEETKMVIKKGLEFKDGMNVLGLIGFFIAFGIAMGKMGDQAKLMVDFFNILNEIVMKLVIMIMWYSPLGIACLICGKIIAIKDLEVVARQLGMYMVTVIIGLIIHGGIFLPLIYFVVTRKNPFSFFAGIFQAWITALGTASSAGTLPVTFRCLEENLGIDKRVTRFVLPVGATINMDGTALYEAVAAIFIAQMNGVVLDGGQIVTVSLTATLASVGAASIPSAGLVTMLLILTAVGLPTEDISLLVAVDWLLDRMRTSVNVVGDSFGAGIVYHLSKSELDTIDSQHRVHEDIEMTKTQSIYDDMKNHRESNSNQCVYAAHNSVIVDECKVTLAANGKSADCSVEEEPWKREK
Method: as §1
Cells were maintained in cell medium using cell culture grade flasks (CellSTACK Corning, 500 cm2 dishes or T175 depending on cell number). The selection antibiotic and G418 (800 μg/ml) was added during cultivation but not for seeding into assay plates. For splitting, cells were washed with PBS (w/o Ca2+, Mg2+, phenol red) and detached with Trypsin/EDTA. Throughout cultivation cells were kept sub-confluent. Detached cells (50,000 cells/well) were seeded in 96-well plates (white, clear bottom from Corning #655098) and incubated over night before usage in the assay. The following media were used. For HEK293 cells expressing INDY MEM (PAA)+10% FCS+1×P/S+2 mM L-Gln; for HEK293 cells expressing GLT-1 DMEM (Gibco)+10% FCS+400 µg/ml G418; for Huh7 cells DMEM (Gibco)+10% FCS+2 mM L-Gin (+1×P/S); for HepG2 cells MEM (PAA, Cat # E15-024)+10% FCS+2 mM L-Gin+1×NEAA+1 mM Na-Pyruvat
The following assay buffers for the particular uptake reaction were used. Citrate uptake buffer: 120 mM NaCl, 5.4 mM KCl, 0.8 mM MgSO4, 5 mM glucose, 1.8 mM CaCl2, 25 mM Hepes, 25 mM MES, pH 6.5. Glutamate uptake buffer: HBSS, 1 mM CaCl2, 1 mM MgCl2, 20 mM Hepes pH 7.4. Glucose uptake buffer: 25 mM Hepes+25 mM MES pH 7.4, 120 mM NaCl, 5.4 mM KCl, 1.8 mM CaCl2, 0.8 mM MgSO4.
As a counter assay, Glutamate uptake by the GLT-1 transporter was used. The principle of the assay is to measure the uptake of ^3H labelled glutamate into HEK cells, which overexpress human GLT-1.
The generation of a GLT-1 cell line was performed as follows: human GLT11 isoform sv1 cDNA (Origene # RC223924) was cloned into vector pFB-Neo-CMV-hGLT1 using QIAfilter Plasmid Midi Kit (Qiagen). Virus was generated in GP293 packaging cells (transfection of plasmid with Lipofectamine 2000+OptiMEM). For transfection into HEK cells GP293, supernatant containing virus was passed through a 0.45 micron sterile filter and DEAE-dextran was added at […] final concentration. The solution was used to transfect HEK293 cells at 37° C., 8.5% CO2. After 24 h selection marker G418 at 400 μg/ml was added and cultivation medium performed in DMEM 10% FBS.
The assay was performed in a 96-well format using repeated washing steps, cell lysis and addition of scintillation fluid. Assay buffer was HBSS, 1 mM CaCl2, 1 mM MgCl2, […] pH 7.4. Cells were seeded into white clear-bottom 96-well plates (50,000/well) in the presence of Poly-D-Lysine and incubated at 37° C. for 16-24 hours. Subsequently the plates were washed once with assay buffer using automated washing/LS 405 Selectors, BioTek ending with a buffer volume of 40 μl. Then 5 μl of compound solution in assay buffer was added and incubated for 20 min at 37° C. in cell incubator, HERA cell Heraeus. Afterwards 10 μl of substrate 3H-Glu (3 nM) were added and incubated for another 20 min at 37° C. in cell incubator, HERAcell. Then the plates were washed once with 200 μl cold assay buffer and 150 μl scintillation fluid was added. […]

INDY [2] = molecular target: T2, INDY; test: 14C-citrate uptake in HEK293 cells overexpressing recombinant human INDY (NaCT); assay type: cell-based; parameters: expressed in transfected cells; host or cells: HEK293
Method in brief: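 HEK293 cells overexpressing human NaCT, 50,000/well, preincubated 5-30 min at 37 °C with compound in pH 6.5 Na+ buffer. 14C-citrate ([…]) uptake then ran 20-90 min at 37 °C, followed by ice-cold washes, NaOH lysis and scintillation counting. 10 mM citrate served as positive control.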

Indy [3] = conditions: at 0.1 mM; cited from earlier work

Compound | IC50 (GLUT1) | IC50 (INDY [1]) | IC50 (GLT-1) | IC50 (INDY [2]) | inhibition of Indy (Indy [3])
O=C(NCc1ccccc1F)C1CN(S(=O)(=O)/C=C/c2ccccc2)C1 [Example 1, N-[(2-fluorophenyl)methyl]-1-[(E)-phenylethenesulfonyl]azetidine-3-carboxamide] | > 50000 nM | 5400 nM |  |  | 
O=C(NCc1ccccc1F)C1CCN(S(=O)(=O)c2ccccc2)CC1 [Example 6, N-[(2-fluorophenyl)methyl]-1-(benzenesulfonyl) piperidine-4-carboxamide] | > 50000 nM | 5700 nM | > 50000 nM |  | 
O=C(O)CC(O)(C(=O)O)C(O)C(=O)O (stereo not drawn) [hydroxycitrate] |  |  |  |  | 30-40%

The remaining molecules from weak to strong by IC50 (INDY [1]), led by results:

IC50 (GLUT1) | IC50 (INDY [1]) | IC50 (GLT-1) | IC50 (INDY [2]) | Compound | inhibition of Indy (Indy [3])
 | 5200 nM | > 20000 nM | 2700 nM | CC(C)c1ccc(S(=O)(=O)N2CCC(C(=O)NCc3ccccn3)CC2)cc1 [Example 111, 1-[4-(propan-2-yl)benzenesulfonyl]-N-[(pyridin-2-yl)methyl]piperidine-4-carboxamide] | 
 | 900 nM | > 20000 nM | 1400 nM | CC(F)c1cccc(S(=O)(=O)N2CCC(C(=O)NCc3ccccc3F)CC2)c1 (stereo not drawn) [Example 112, 1-[3-(1-fluoroethyl)benzenesulfonyl]-N-[(2-fluorophenyl)methyl]piperidine-4-carboxamide] | 
 | 300 nM | > 20000 nM | 400 nM | O=C(NCc1ccccn1)C1CCN(S(=O)(=O)c2cc(Cl)cc(Br)c2)CC1 [Example 96, 1-(3-bromo-5-chlorobenzenesulfonyl)-N-[(pyridin-2-yl)methyl]piperidine-4-carboxamide] | 
 | 100 nM | > 20000 nM | 100 nM | O=C(NCc1ccccc1)C1CCN(S(=O)(=O)c2cc(Cl)cc(Cl)c2)CC1 [Example 103, N-benzyl-1-(3,5-dichlorobenzenesulfonyl)piperidine-4-carboxamide] | 
